Assay results from patent publication US5206241A, “Labdanes and process for their preparation” (Hoechst Aktiengesellschaft, priority 1990, dated 1993).
Values after ≈ are worked out from the molar mass of the structure shown. Where a name gives a salt, the structure may show the parent alone.

Tests used:
Guinea pig atrium = experiment: Positive inotropic activity, electrically stimulated isolated guinea pig atrium; details: contractility of isolated atrium, Ringer's solution, 32° C., recorded 7 to 10 minutes; for EC50: Cavia porcellus
Protocol: Guinea pigs of both sexes and weighing 400 g are sacrificed, and the heart is removed and placed in Ringer's solution at room temperature. Both the left and the right atria are then isolated, fixed in an organ holder and placed in a bath containing Ringer's solution and maintained at a temperature of 32° C. A mixture of 95% O2 and 5% CO2 is bubbled through the organ bath. Electrical stimulation of the atrium is then carried out. A compound according to the invention is dissolved in water to give a solution of known concentration and is added to the bath. The contractility of the atrium is recorded for 7 to 10 minutes via an […] strain gage on a Nihon Kohden 4-channel pen recorder. The activity is expressed on the basis of the resulting data as the EC50.
Data for compounds disclosed in Indian Patent No. 163 242 are also provided for comparison.

[1] = system: intraocular pressure (IOP) in conscious rabbits; experiment: Measurement of the intraocular pressure in conscious rabbits; format: in vivo, rabbit; details: 2% solution, 100 μl into one eye; for IOP-Lowering Effect, % decrease in IOP: Schioetz tonometer, relative to initial value; for IOP-Lowering Effect, Duration: unit of duration not given
Protocol: For this experiment rabbits of both sexes and weighin 2 to 3 kg are used. The intraocular pressure (IOP) is measured with a Schioetz tonometer after corneal anaesthesia with a 2% novocaine solution. A 2% solution of a compound according to the invention is prepared, using the stoichiometric amount of 0.1N HCl, by dissolving it or its salt directly in water. After the initial value has been determined, 100 μl of the solution of the test compound are […] into one of the eyes, and the vehicle is instilled into the other eye. The IOP is measured at defined time intervals, i.e. 0.5, 1, 2, 3, 4 and 5 hours. The percentage decreases in the IOP is calculated using the initial value.

SMILES | EC50 (Guinea pig atrium) [µg/mL] | IOP-Lowering Effect, % decrease in IOP [1] | IOP-Lowering Effect, Duration [1] | also measured
C=C[C@@]1(C)CC(=O)[C@]2(O)[C@@]3(C)[C@@H](O)CCC(C)(C)[C@@H]3[C@H](OC(=O)CCN3CCOCC3)[C@H](OC(=O)COCC)[C@@]2(C)O1 [drawing 34] | 0.044 (≈ 0.0739 µM) | – | – | –
C=C[C@@]1(C)CC(=O)[C@]2(O)[C@@]3(C)[C@@H](O)CCC(C)(C)[C@@H]3[C@H](OC(=O)COC)[C@H](OC(=O)CCN(C)C)[C@@]2(C)O1 [COCH2 OCH3, CO(CH2)2 NMe2.HCl, 1α,9α-Dihydroxy-7β-(3-N,N-dimethylamino-propionyloxy)-8,13-epoxy-6β-methoxyacetoxy-labd-14-en-11-one] | 0.77 | – | – | –
C=C[C@@]1(C)CC(=O)[C@]2(O)[C@@]3(C)[C@@H](O)CCC(C)(C)[C@@H]3[C@H](OC(=O)CCN(C)C)[C@H](OC(=O)COC)[C@@]2(C)O1 [CO(CH2)2 N(CH3)2.2HCl, COCH2 OCH3, 1α,9α-Dihydroxy-6β-(3-N,N-dimethylamino-propionyloxy)-8,13-epoxy-7β-methoxy-acetoxy-labd-14-en-11-one] | 0.024 | – | – | –
C=C[C@@]1(C)CC(=O)[C@]2(O)[C@@]3(C)[C@@H](O)CCC(C)(C)[C@@H]3[C@H](OC(=O)CCN3CCCCC3)[C@H](OC(=O)COc3ccccc3)[C@@]2(C)O1 | – | 31% | 300 | –
C=C[C@@]1(C)CC(=O)[C@]2(O)[C@@]3(C)[C@@H](O)CCC(C)(C)[C@@H]3[C@H](OC(=O)CCN3CCN(C)CC3)[C@H](OC(=O)COCC)[C@@]2(C)O1 | – | 32% | > 360 | –
C=C[C@@]1(C)CC(=O)[C@]2(O)[C@@]3(C)[C@@H](O)CCC(C)(C)[C@@H]3[C@H](OC(=O)CCN3CCOCC3)[C@H](OC(=O)COCC)[C@@]2(C)O1 [drawing 39] | – | 31% | > 360 | –
C=C[C@@]1(C)CC(=O)[C@]2(O)[C@@]3(C)[C@@H](O)CCC(C)(C)[C@@H]3[C@H](OC(=O)CN3CCCCC3)[C@H](O)[C@@]2(C)O1 [drawing 41, reference compound] | – | Not active | – | –
C=C[C@@]1(C)CC(=O)[C@]2(O)[C@@]3(C)[C@@H](O)CCC(C)(C)[C@@H]3[C@H](OC(=O)CN3CCCCC3)[C@H](O)[C@@]2(C)O1 [drawing 36, reference compound] | 1.8 (≈ 3.65 µM) | – | – | –
C=C[C@@]1(C)CC(=O)[C@]2(O)[C@@]3(C)[C@@H](O)CCC(C)(C)[C@@H]3[C@H](OC(=O)CCN3CCOCC3)[C@H](O)[C@@]2(C)O1 [reference compound] | – | – | – | Guinea pig atrium EC50 (Guinea pig atrium): Not active
